One series concerns S. aureus MRSA 5157. The conditions noted are these: 24 hours at 37° C.
The next series has as its system S. aureus MRSA 3126. The note with it: 24 hours at 37° C.
The test system of another series is S. aureus MRSA 5159. The conditions noted are these: 24 hours at 37° C.
A further series concerns S. aureus MRSA 1870. The note with it: 24 hours at 37° C.
The subject of the next series is S. aureus MRSA 2-122. The note with it: 24 hours at 37° C.
In series [1] the test system is Listeria monocytogenes, ATCC 19115. Nature of the series: Growth minimum inhibitory concentration (MIC), microtiter broth dilution. The conditions noted are these: L. monocytogenes; 12 hours at 37° C. Format: cell-based. The text has this: To compare the antimicrobial activity of the peptide produced by the method of Example 1, the inventors of the present invention measured the growth minimum inhibitory concentration (MIC), which is minimum concentration of the peptide showing no dissociation of bacterial cells.
Specifically, E. coli (Escherichia coli, ATCC 25922), and P. aeruginosa (Pseudomonas aeruginosa, ATCC 15692), S. typhimurium (Salmonella typhimurium, KTCC 1926), and P. vulgaris (Proteus vulgaris, KCTC 2433 as Gram-negative bacteria, and S. aureus (Staphylococcus aureus, ATCC 25923), L. monocytogenes (Listeria monocytogenes, ATCC 19115), B. subtilis (Bacillus subtilis, KCTC 1918), and S. epidermidis (Staphylococcus epidermidis, KCTC 3096) as Gram-positive bacteria were used after obtaining them from American Type Culture Collection (ATCC) or Korean Cell Line Bank. Each bacterial cell line was cultured in LB medium (1% bacto tryptone, 0.5% bacto yeast extract, and 1% sodium chloride; Sigma, USA) to a mid-log phase at pH of 5.5 or 7.4. After that, the cells were diluted in 1% bacto peptone medium (Difco, USA) to have cell body concentration of 5×10^5 cells/100 μl, and then inoculated to a microtiter plate (NUNC, USA). Thereafter, each of CSP-4 peptide synthesized in Example 1 above and the mother peptide was diluted, 1/2 times for each, at pH of 5.5 or 7.4 in a 96-well plate. After adding the cells to the plate, the cells were cultured for 12 hours at 37° C. Then, the absorbance was measured at a wavelength of 620 nm by using a microtiter plate reader (Merck Elisa reader, Germany) to determine the MIC value of each bacterial strain.

A further series concerns S. aureus MRSA 5156. The note with it: 24 hours at 37° C.
The subject of the next series is HaCaT cell line. Nature of the series: Cytotoxicity in normal cell line (MTT). Format: cell-based, human. The conditions noted are these: HaCaT cell line. How it is done: To determine the cytotoxicity of the peptide produced by the method of Example 1 in normal cell line, toxicity was measured by using human keratinocyte forming cell line (HaCaT cell line, Dr. NE. Fusenig, Heidelberg, Germany).
Specifically, HaCaT cells which have been cultured in DMEM medium containing 10% FBS (Fetal Bovine Serum) were aliquoted in a 96-well plate (3×10^3 cells/well). […] After the culture, a reaction solution containing 5 mg/ml MTT (Thiazolyl Blue Tetrazolium Bromide) dissolved in physiological saline (PBS) was added in an amount of 20 μl to each well and allowed to react for 4 hours. After that, the supernatant was removed, and, by dissolving the formed MTT crystals by adding 200 μl of DMSO, the absorbance at 560 nm was measured to determine the cell survival ability.

Another series has as its system skin of a hairless mouse. Nature of the series: Scanning electron microscopy of hairless mouse skin with induced dermatitis. The class given is in vivo. The note with it: 200 μg/ml. On the procedure: Skin of a 6-week old hairless mouse was treated with 100 μl of S. aureus MRSA 0027 (1×10^8 cells/ml) to induce inflammation. Thirty minutes later, the skin was further treated with CSP-4 peptide at 100 μg/ml or 200 μg/ml. From each of a mouse having induced inflammation further treated with the peptide, a mouse treated only with the peptide, and a mouse having induced inflammation, tissues were collected and washed using physiological saline (PBS). Then, the tissues were fixed for 24 hours at room temperature by using 4% PFA (paraformaldehyde). […] According to H&E staining and immunohistochemical method, a change in tissues and onset of an anti-inflammatory cytokine or TLR2 receptor was determined. […] Remaining liquids were removed by TBST buffer such that the tissues are not detached, and a secondary antibody linked with green fluorescence (Got anti-mouse IgG (HRP) LF-SA5001-conjugated) was allowed to bind thereto. Next, each tissue was determined by using a fluorescent microscope (I×71, Olympus, Japan).
From the mouse tissues which have been treated according to the method of above Example 8, a paraffin block was prepared. […] Next, a change in the tissues was determined by using scanning electron microscopy (SEM).

Ends that are not written are not given here.

In the case of “FLRFIGSVIHGIGHLVHHIGVAL-NH2 [Clavaspirin]”, the MIC (commonly the lowest concentration that inhibits growth of the organism) in the series on S. aureus MRSA 5157 was 8 µM; in the series on S. aureus MRSA 3126, 16 µM; in the series with S. aureus MRSA 5159, 32 µM; in the series with S. aureus MRSA 1870 it was 8 µM; with S. aureus MRSA 2-122, 8 µM; with S. aureus MRSA 5156, 8 µM. In series [1], the “Growth minimum inhibitory concentration” value was 16 µM.

As for FLRFIGSVKHGKGHLVHHIGVAL-NH2 [CSP-4], the “cytotoxicity in human keratinocyte forming cell line” value in the series with HaCaT cell line is “almost no cytotoxicity”. In addition, the MIC against S. aureus MRSA 5157, in the series on S. aureus MRSA 3126, in the series on S. aureus MRSA 5159, in the series with S. aureus MRSA 1870, against S. aureus MRSA 2-122 and in the series on S. aureus MRSA 5156 was 8 µM throughout. In [1], the “Growth minimum inhibitory concentration” value stood at 4 µM. Besides, in the series with skin of a hairless mouse, the “change in mouse skin (SEM), treated only with the peptide” value is listed as “no change in mouse skin is induced”.

The record behind these values is patent US20190038714A1, “ANTI-INFLAMMATORY COMPOSITION COMPRISING CLAVASPIRIN PEPTIDE ANALOGUE AS EFFECTIVE INGREDIENT” (INDUSTRY-ACADEMIC COOPERATION FOUNDATION, CHOSUN UNIVERSITY, priority 2015, published 2019).
